Results as given in patent publication US9982011B2, “Legumain activated doxorubicin derivative as well as preparation method and application thereof” (priority 2012, dated 2018).
“Also recorded” adds a separate entry of the source.

Tests used:
BALB/C mice = experiment: Maximum tolerated dose (MTD) / acute toxicity of a single injection in mice; details: single injection; for Mortality rate (%) / Number of dead animal: 6 female BALB/C mice
Excerpt: Test purpose: to investigate the acute toxicity of the subject new drug formulation via MTD assay by intravenous administration to mice.
Test drug: S1 and S2 injections, diluted to the corresponding concentrations with physiological saline when tested.
Animal: the first class BALB/C mice, weighing 19-21 g and all mice being female.
Method and results: 36 female BALB/C mice weighing 19-21 g were randomly divided into 6 groups according to their body weights, with 6 mice in each group. […] Control tests were performed by injecting 0.2 ml physiological saline or doxorubicin hydrochloride. […] Blood samples were taken on the 3, 5 and 14 days for counting the whole blood cells. Animals were anatomized on day 14 to take the heart, liver, kidney, lung, spleen, and pancreas for HE staining.
The MTD for intravenous administration of a test drug is an important reference index for drug toxicity.

Cathepsin B [1] = target: T1, Cathepsin B (Homo sapiens, UniProt P07858); experiment: Cathepsin enzymatic activity with Z-Phe-Arg-NMec substrate; format: biochemical; details: pH 6.0, FIG. 2
Excerpt: Furthermore, Z-Phe-Arg-NMec was used as substrate to analyze the activity of cathepsin under pH 6.0. […] Cathepsin B was highly expressed in the lysosome of the tumor cell. It could degrade type I collagen, activate interstitial procollagenase and type IV procollagenase, and degrade type I, II, III and IV collagen fibers in the stroma, thus anticipating infiltration and metastasis of tumor.

Cathepsin B [2] = target: T1, Cathepsin B; experiment: In vitro binding to cathepsin absorbed on a 96-well plate (fluorescence of bound drug); details: cathepsin absorbed on 96-well plate, blocked with BSA, FIG. 1
Excerpt: The R6 group allows the drug to be able to target cathepsin (Cathepsin B) in the tumor microenvironment and inhibit the activity of cathepsin necessary for tumor growth, development and metastasis. […] The R6 group also allows the drug to have an additional function of targeting tumor, thus the drug has two targeted effects.
The test method was described as follows. Cathepsin was absorbed on a 96-well plate and blocked with BSA. Succinyl-AANL-DOX (SEQ ID NO: 2), S1 and a mixture of S1 and E-64 (an inhibitor for specific binding of cathepsin) were added to allow them to bind to the cathepsin on the 96-well plate. The unbound drugs were removed and the fluorescence of the bound drug was detected.

[3] = Distribution of drug in tumor and heart tissues after intravenous injection; format: in vivo; details: for Distribution in tumor tissue sections (fluorescence microscope): 12 hours after intravenous injection of 10 μmol/kg, compared with Succinyl-AANL-DOX, FIG. 3; for Accumulation in the heart tissue / Accumulation in the tumor tissue: FIG. 4; for Accumulation in the tumor tissue: compared with doxorubicin and Succinyl-AANL-DOX
Excerpt: After intravenous injection of EMC-AANL-DOX (SEQ ID NO: 2), EMC-AANL-DOX (SEQ ID NO: 2) could accumulate at the tumor site due to the targeting property of the EMC group, as compared with Succinyl-AANL-DOX (SEQ ID NO: 2) and more EMC-AANL-DOX (SEQ ID NO: 2) were distributed in the tumor tissue. Since the drug itself could produce fluorescence, we detected distribution of Succinyl-AANL-DOX (SEQ ID NO: 2) and EMC-AANL-DOX (SEQ ID NO: 2) in the tumor tissue sections by fluorescence microscope 12 hours after intravenous injection of 10 μmol/kg Succinyl-AANL-DOX (SEQ ID NO: 2) and EMC-AANL-DOX (SEQ ID NO: 2). The nucleus was stained by 4′,6-diamidino-2-phenylindole (DAPI).

4T1 cells = experiment: Efficacy in 4T1 tumor metastasis (lung) model in BALB/C mice; format: in vivo; details: lung, day 27; i.p. daily for 8 days; S1, S2 10 μmol/kg, doxorubicin hydrochloride 3 μmol/kg
Excerpt: Test purpose: to investigate the anti-tumor efficacy of S1 and S2 in a tumor metastasis treatment model from BALB/C mice.
Test drug: S1 and S2 injections, and doxorubicin hydrochloride injection, diluted to corresponding concentrations with physiological saline when testing.
1. Animal: BALB/C mice of 6-8 weeks old, all female.
1) 4T1 cells were purchased from American type culture collection (ATCC) and identified according the specification provided by ATCC. Cells were cultivated in DMEM culture medium containing 10% fetal bovine serum at 37° C. and 5% CO2. The cells were passaged for every three days and cells within the 15th passage were used.
2) Production of tumor metastasis. 10^6 […] were subcutaneously injected to the back of the BALB/C mice. Mice were randomly grouped after the tumor grew to about 1.5 cm. The subcutaneous tumor was removed by surgery and drug treatment began. Mice were killed after anesthesia on day 27. The whole lung was taken out and put into Bouin's solution for staining. The number of the tumor metastasized to lung was counted with anatomical microscope.
3) Course of treatment. According to the clinical application of S1 and S2, drugs were intraperitoneally injected. A dose of 10 μmol/kg (<1/10 MTD) was used for the S1 treatment group, 10 μmol/kg (<1/10 MTD) for the S2 treatment group, and 3 μmol/kg (>1/2 MTD) for doxorubicin hydrochloride. The control group was administered with physiological saline. The drugs were administered daily for 8 days.

A549 = experiment: Efficacy at different doses in human non-small cell lung cancer A549 model; format: in vivo; details: FIG. 6
Excerpt: In some examples and many other tumor treatment modes of the present invention, efficacies of Succinyl-AANL-DOX (SEQ ID NO: 2) and EMC-AANL-DOX (SEQ ID NO: 2) were also studied and compared according to the same method as described above. […] Thus, EMC-AANL-DOX (SEQ ID NO: 2) could satisfy our requirements on clinical development.

MDA-MB231 cells = experiment: Efficacy in MDA-MB231 tumor model in nude mice; format: in vivo; details: i.p. twice weekly for three weeks, S1, S2 30 mg/kg, doxorubicin hydrochloride 4 mg/kg
Excerpt: Test purpose: to investigate the anti-tumor efficacy of S1 and S2 via mouse tumor treatment model.
Test drug: S1 and S2 injections, and doxorubicin hydrochloride injection, diluted to corresponding concentrations by physiological saline when testing.
1. Animal: nude mice of 6-8 weeks old, all female.
1) MDA-MB231 cells were purchased from American type culture collection (ATCC) and identified according the specification provided by ATCC.
2) Production of tumor. […] Mice were randomly grouped after the diameter of the tumor reached about 0.3 cm to 0.4 cm. Then treatment began.
According to the clinical application of S1 and S2, drugs were intraperitoneally injected. A dose of 30 mg/kg (<1/2 MTD) was used for the S1 treatment group, 30 mg/kg (<1/2 MTD) for the S2 treatment group, and 4 mg/kg (>1/2 MTD) for doxorubicin hydrochloride. The control group was administered with physiological saline. The drugs were administered twice weekly for three weeks.

COc1cccc2c1C(=O)c1c(O)c3c(c(O)c1C2=O)CC(O)(C(=O)CO)CC3OC1CC(NC(=O)C(CC(C)C)NC(=O)C(CC(N)=O)NC(=O)C(C)NC(=O)C(C)NC(=O)CCCCCN2C(=O)C=CC2=O)C(O)C(C)O1 (stereo not shown) [Example S1, EMC-AANL-Doxorubicin]
Mortality rate (%) (BALB/C mice; 50 mg/kg): 0% | Number of dead animal (BALB/C mice; 50 mg/kg, observed 17 days): 0 | Mortality rate (%) (BALB/C mice; 100 mg/kg): 0% | Number of dead animal (BALB/C mice; 100 mg/kg): 0 | Mortality rate (%) (BALB/C mice; 150 mg/kg): 0% | Number of dead animal (BALB/C mice; 150 mg/kg): 0 | Abnormal behaviors and death observed (BALB/C mice; 150 mg/kg, mice): no pilo-erection, hair tousle and lackluster, lethargy, stoop, irritable reaction and death were observed | Mortality rate (%) (BALB/C mice; 200 mg/kg): 33.3% | Number of dead animal (BALB/C mice; 200 mg/kg): 2 | Mortality rate (%) (BALB/C mice; 300 mg/kg): 100% | Number of dead animal (BALB/C mice; 300 mg/kg): 5 | MTD (BALB/C mice; mice): > 100 µmol/kg | Inhibition of enzymatic activity of cathepsin (Cathepsin B [1]): could effectively inhibit the enzymatic activity of cathepsin | Binding to cathepsin (Cathepsin B [2]): bound to the cathepsin; also recorded: can bind cathepsin | Binding to cathepsin (Cathepsin B [2]; listed as EMC-AANL-DOX): can efficiently bind to Cathepsin B | Distribution in tumor tissue sections (fluorescence microscope) [3]: have the effect to accumulate the drug at tumor cell | Distribution in tumor tissue sections (fluorescence microscope) ([3]; listed as EMC-AANL-DOX): significantly more | Accumulation in the heart tissue [3]: reduced accumulation in the heart | Accumulation in the heart tissue ([3]; listed as EMC-AANL-DOX): no accumulation in the heart tissue | Accumulation in the tumor tissue [3]: accumulation of S1 in the tumor site | Accumulation in the tumor tissue ([3]; listed as EMC-AANL-DOX): accumulated in a higher concentration in the tumor tissue | Inhibitory rate on metastasis (4T1 cells): 91.6% | Number of metastasized tumor (4T1 cells): 12 ± 4 | Effect on tumor in A549 model (in words) (A549): could completely kill the tumor, with no recurrence of tumor in the later stage of the treatment | Inhibitory rate of tumor, 20 days (MDA-MB231 cells; 20 days): 25.8% | Size of tumor (mm^3), 20 days (MDA-MB231 cells; 20 days, nude mice): 287.42 ± 30.52 mm^3 | Inhibitory rate of tumor, 38 days (MDA-MB231 cells; 38 days): 68.5% | Size of tumor (mm^3), 38 days (MDA-MB231 cells; 38 days, nude mice): 678.49 ± 37.7 mm^3
